Experimental data reported in a melting point compilation (Tetko et al.).

| melting point [°C] | SMILES |
| --- | --- |
| > 300 | C/C(=N\CCN)c1c(O)c2ccccc2n(-c2ccccc2)c1=O |
| 194 | COC1C(OC(=O)C=CC=CC=CC=CC(=O)O)CCC2(CO2)C1C1(C)OC1CC=C(C)C (stereo not drawn) |
| 182 | Cc1cc2cc3ccccc3cc2cc(C)c1=O |
| 58 | COc1ccc(Nc2cccc(C(F)(F)F)c2)cc1 |
| 214 to 216 | COc1cccc2cc(C(=O)O)c(=O)oc12 |
| 114 | NC=NO |
| 87 | CC(=O)c1c(C(C)C)cc(C(C)C)cc1C(C)C |
| 82 to 83 | Cc1ccc(-c2snc(Cl)c2C#N)cc1 |
| 29 to 30 | Fc1ccc(Cc2ccc(F)cc2)cc1 |
| 198 to 200 | NC(=S)Nc1ccc2c(c1)OCO2 |
| 34 | CCCCCCCCN(CCCCCCCC)CCCCCCCC |
| 196 to 199 | COc1ccc([N+](=O)[O-])c(SC(C)C(=O)O)n1 (stereo not drawn) |
| 70 | N#Cc1c(F)cccc1Sc1ccc(Cl)cc1 |
| 2 | Cc1cccc(Cl)c1N |
| 230 to 232 | Cc1ccc(-c2cc(C(=O)O)c(C)o2)cc1 |
| 85 to 88 | O=[N+]([O-])c1ccc2c(c1)OCCOCCOCCOCCOCCO2 |
| 84 | Cc1nc2cc(C)c(C)cc2s1 |
| 50 | Cc1cc(Br)cc(C)c1N |
| 264 to 266 | O=C1C(=Cc2ccc(-c3ccc(Cl)cc3)o2)CCC1=Cc1ccc(-c2ccc(Cl)cc2)o1 |
| 198 | CCOC(=O)CNC(=O)c1cn(CC)c2nc(C)ccc2c1=O |
| 156 | O=C(O)CSCC(=O)NC1CCSC1=O (stereo not drawn) |
| 148 to 149 | COc1c(Cl)cc(Cl)c(OC)c1C(N)=O |
| -95.8 | CC(C)COC=O |

| melting point [°C] | SMILES |
| --- | --- |
| 247 | Nc1ccc(N=Nc2ccc(N=Nc3ccc(N)cc3)cc2)cc1 |
| 205 to 206 | CC(=O)/C(=N\Nc1cccc([N+](=O)[O-])c1)C(=O)C(F)(F)F |
| 66 to 68 | Cc1onc(-c2ccccc2)c1CN |
| 222 | CCc1c2c(nc3ccc(OC(=O)N4CCC(N5CCCCC5)CC4)cc13)-c1cc3c(c(=O)n1C2)COC(=O)C3(O)CC (stereo not drawn) |
| 245 | O=Nc1ccc(O)c2ncccc12 |
| 91 | COc1ccc(Cl)nn1 |
| 20.4 | CCCCCCCCCCCCCCCC(=O)OCCC |
| 78 to 81 | CN(N)C(=O)c1cc(Cl)ccc1N |
| 164 | Cc1c(C)c([N+](=O)[O-])c(C)c2c1C(=O)C2 |
| 180 to 182 | COC(=O)c1ccc(NS(=O)(=O)c2ccc(C)cc2)c(NS(=O)(=O)c2ccc(C)cc2)c1 |
| 206 | CC1CCC2(OC1)OC1CC3C4CC=C5CC(O)CCC5(C)C4CCC3(C)C1C2C (stereo not drawn) |
| 172 | N#CCC(N)=C(C#N)C#N |
| 50 | O=C(CBr)OCc1ccc([N+](=O)[O-])cc1 |
| 169 | N[C@@H](CCC(=O)OCc1ccccc1)C(=O)O |
| 158 to 160 | O=c1c(Cl)c(Cl)cnn1Cc1c(Cl)cccc1Cl |
| 175 | CN(C)c1ccc(C(=O)NN)cc1 |
| -75 | CC1CCC(C)C(C)C1C (stereo not drawn) |
| -78 | C=C=N |
| 91 to 93 | CCCCCCCCc1ccc(C(=O)CCC(=O)O)cc1 |
| 146 to 147 | Nc1ccc(C/C(=N/O)c2ccc(N)cc2)cc1 |
| 273 to 275 | CCCCc1c(C)nc(N)nc1O |
| -28 | CC(=O)Oc1c(C)c(C)c2c(c1C)CCC(C)(CCCC(C)CCCC(C)CCCC(C)C)O2 (stereo not drawn) |
| 71 | CCCCCCOc1ccccc1C(N)=O |

| melting point [°C] | SMILES |
| --- | --- |
| 32 | COC(=O)C1=Cc2ccccc2C1C (stereo not drawn) |
| -35 | FCc1ccccc1 |
| 102 | CCOC(=O)C(C)C(O)(c1ccccc1)c1ccccc1 (stereo not drawn) |
| 260 | O=C(NNC(=O)c1ccc(Cl)cc1)c1ccc(Cl)cc1 |
| 113 | O=C(Cl)c1ccc(-c2ccccc2)cc1 |
| 134 to 136 | O=C1C=C(NCNc2ccccn2)C(=O)c2ccccc21 |
| 94 to 100 | Cc1ccc(S(=O)(=O)N(CCO)CCO)cc1 |
| 58 | COCC(=NOCC(=O)OC)c1cc(Oc2ccc(C(F)(F)F)cc2Cl)ccc1[N+](=O)[O-] |
| 156 to 157 | COC(=O)c1sc(-c2ccc(C(C)(C)C)cc2)cc1N |
| 119 to 124 | CN(C)c1ccc(N)c([N+](=O)[O-])c1 |
| 68 | Nc1cc(F)c(F)c(Br)c1 |
| 179 | COc1cc(C(N)=O)cc(OC)c1OC |
| 98 to 100 | CC(=O)CCn1cc([N+](=O)[O-])nc1C |
| 92.5 to 95.5 | CCOC(=O)c1c(-c2ccc(F)cc2)csc1N |
| 121 | O=C(O)CNC(=O)OCc1ccccc1 |
| 142 | CC1C(=CC(=O)OCCN(C)C)CCC2C1C(=O)CC1C(C)(C)C(O)CCC21C (stereo not drawn) |
| 238 | CCCCCCCCn1c(=O)c2cc3c(OC)c4cc5c(=O)n(CCCCCCCC)c(=O)c5cc4c(OC)c3cc2c1=O |
| 148 to 150 | CCOC(=O)c1cc(=O)c2cc(I)ccc2o1 |
| 59 | CCCCCC(=NO)C(C)=O |
| -25.6 | CC1CC(C)(C)CC1=O (stereo not drawn) |
| -36 | C1CCC(OC2CCCCC2)CC1 |
| 7 | CC1=CC(=O)OC(C)(C)O1 |
| 58 | COc1cc(C)c(S(=O)(=O)Cl)c(C)c1C |

| melting point [°C] | SMILES |
| --- | --- |
| 165 | CC1(C)OC(=O)C(=NNc2ccccc2[N+](=O)[O-])C(=O)O1 |
| 181 to 183 | COc1cc(C(F)(F)F)nc2ccc(C)c([N+](=O)[O-])c12 |
| 63 | N#CCc1cccc([N+](=O)[O-])c1 |
| 100 to 103 | Cc1onc(-c2c(Cl)cccc2Cl)c1C=O |
| 92.5 | O=c1c(C2CC(c3ccc(OCc4ccc(C(F)(F)F)cc4)cc3)Cc3ccccc32)c(O)oc2ccccc12 (stereo not drawn) |
| 82 to 84 | C1CCC2(CC1)OCC(C1OC3(CCCCC3)OC1C1COC3(CCCCC3)O1)O2 (stereo not drawn) |
| 62 to 63 | O=Cc1ccc(N2CCCCC2)cc1 |
| 244 | O=C(NCCNC(=O)c1ccccc1)c1ccccc1 |
| 241 to 243 | CSc1sc(C(=O)O)c(-c2ccc(Cl)cc2)c1C#N |
| 31 | O=NN(CCCl)C(=O)NCCCl |
| 158 | COC(=O)C(c1ccccc1Cl)N1CCc2sccc2C1 (stereo not drawn) |
| 66 | C#Cc1ccc(Br)cc1 |
| 126 | COc1ccccc1C1Nn2c(COc3ccccc3)nnc2S1 (stereo not drawn) |
| 35 to 38 | Brc1coc2ccccc12 |
| 252 | CC1C(=O)C23C4CC5C(C)(C)CCC(=O)C56COC(CC1C2OC(C)(C)O4)C63 (stereo not drawn) |
| -37 | C=C(C)C(=O)OCC(C)C |
| 125 | CCCC(CCC)C(=O)O |
| 196 to 199 | Nc1c(I)cc(I)c(C(=O)O)c1I |
| 75 | FC(F)(F)c1ccccc1CCc1ccccc1C(F)(F)F |
| 143 to 145 | CC(=O)Nc1ccc(C(C)=O)c(O)c1 |
| 77 | CCOC(=O)C(C(=O)OCC)C(C(=O)OCC)C(=O)OCC |
| 54 to 58 | Cc1ccc(S(=O)(=O)CCO)cc1 |
| 48 to 49 | Cn1nc(-c2ccccc2)cc1CN |

| melting point [°C] | SMILES |
| --- | --- |
| 95.5 | C/C(=N\O)C1CC2(C)CCC1C2(C)C (stereo not drawn) |
| 83 to 88 | O=S(=O)(c1ccccc1)C1CC1(Cl)Cl (stereo not drawn) |
| 34 | N#Cc1cccc(F)n1 |
| 60.5 | CCCCCCCCCCCCCCCCCC(=O)OCCO |
| 104 | COC(=O)C(C#N)=C(SCc1ccccc1)SCc1ccccc1 |
| 157 | O=C(c1ccccc1)c1nn2c(C(F)(F)F)nnc2s1 |
| 106 | CN1CCN(C(c2ccccc2)c2ccccc2)CC1 |
| 61 | Nc1ccc(CO)cc1 |
| 111 | CC1(C)OC(C)(C(C)(C)O)CCC1C(=O)O (stereo not drawn) |
| 179 to 182 | c1ccc(C2=C(c3ccccc3)C(c3ccccc3)=C(c3ccccc3)C2)cc1 |
| 31 to 32 | CC(c1ccc(OC(F)=C(F)F)cc1)(c1ccc(OC(F)=C(F)F)cc1)c1ccc(OC(F)=C(F)F)cc1 |
| 119 | CN(C)C(=O)N(C(=O)c1ccccc1)c1ccc(Cl)c(Cl)c1 |
| 44 | CCN(CC)CC(=O)Nc1c(C)cc(C)cc1C |
| 135 | CC1=C(C(=O)O)CCC1(C)C |
| 108 to 111 | CC(=NO)c1ccc(Cl)c(Cl)c1 |
| 37.5 | CCC(N)(CO)CO |
| 33 | CC(C)(C)c1ccc(CCO)cc1 |
| 133 | c1cc2c3c(ccc4c3c1CCC4)CCC2 |
| 160 | Cc1ccc(C(=O)O)c(Cl)n1 |
| 271 to 273 | O=[N+]([O-])c1cnccc1O |

| SMILES | melting point [°C] |
| --- | --- |
| O=C(CBr)c1ccc(-c2ccccc2)cc1 | 125 |
| COc1c(Br)cc(Br)cc1Br | 88 |
| Cn1cnc(S(=O)(=O)Cl)c1 | 85 to 90 |
| Cc1cc(OC(=O)N(C)C)n(-c2ccccc2)n1 | 50 |
| COC(=O)[C@@]12[C@H]3c4c(c(-c5ccccc5)c5ccccc5c4-c4ccccc4)[C@@H]1C=C[C@]32C(=O)OC | 210 |
| CN(C)P(=O)(N(C)C)N(C)C | 7.2 |
| CC(C)(C)CCO | -60 |
| CN=C1CN(O)C(c2ccccc2)=c2cc(Cl)ccc2=N1 | 236 |
| NC(=NO)c1cccnc1 | 130 to 131 |
| BrCc1ccc2nsnc2c1 | 91 |
| O=S(=O)(c1ccc(Cl)cc1)c1cc(Cl)c(Cl)cc1Cl | 147 |
| O=C(O)Cc1ccc([N+](=O)[O-])cc1[N+](=O)[O-] | 180 |
| CC(=O)C1CC[C@]2(C)[C@H]3CC[C@]4(C)C(O)CC[C@H]4[C@@H]3CC[C@@]2(C)C1 (stereo partly drawn) | 152 |
| Clc1cc(Cl)c(-c2c(Cl)cccc2Cl)c(Cl)c1 | 85 |
| C=C[Si]12OCCN(CCO1)CCO2 | 163 to 165 |
| Cc1ccc(C)c2ccccc12 | 7.6 |
